Calls of active or inactive are those of the source. The rule behind the calls is not given here. Peptide text beside a SMILES is read from it. * marks the point of attachment. X1 = CCC1(C(=O)OCCS*)C(=O)OCc2c1cc1n(c2=O)Cc2cc3ccccc3nc2-1
Key:
[1] = test system: NCI-N87; test: cells; conditions: Homo sapiens, NCI-N87, 48 h
Description: Cytotoxicity against HER-positive human NCI-N87 cells incubated for 48 hrs by CCK-8 assay

[2] = Toxicity in nude mouse xenografted with human SK-BR-3 cells assessed as change in blood urea nitrogen level at 8 umol/kg, iv administered every 3 days for 14 days; format: organism-based; conditions: in vivo, 336 h, dose 8 µmol/kg, time 14 day
[3] = Toxicity in nude mouse xenografted with human SK-BR-3 cells assessed as change in alkaline phosphatase level at 8 umol/kg, iv administered every 3 days for 14 days; format: organism-based; conditions: in vivo, 336 h, dose 8 µmol/kg, time 14 day
[4] = Toxicity in nude mouse xenografted with human SK-BR-3 cells assessed as change in albumin level at 8 umol/kg, iv administered every 3 days for 14 days; format: organism-based; conditions: in vivo, 336 h, dose 8 µmol/kg, time 14 day
[5] = Toxicity in nude mouse xenografted with human SK-BR-3 cells assessed as inflammatory cell infiltration in lung at 8 umol/kg, iv administered every 3 days for 14 days by H and E staining based analysis; format: organism-based; conditions: in vivo, 336 h, dose 8 µmol/kg, time 14 day
[6] = test system: SK-BR-3; test: Induction of apoptosis in human SK-BR-3 cells assessed as necrotic cells at 1 uM incubated for 24 hrs by Annexin V-FITC/PI staining based flow cytometry analysis (reference value: 1.49%); format: functional
[7] = test system: SK-BR-3; test: Induction of apoptosis in human SK-BR-3 cells assessed as live cells at 1 uM incubated for 24 hrs by Annexin V-FITC/PI staining based flow cytometry analysis (reference value: 94.6%); format: functional
[8] = test system: SK-OV-3; test: cells; conditions: Homo sapiens, SK-OV-3, 48 h
Description: Cytotoxicity against HER-positive human SK-OV-3 cells incubated for 48 hrs by CCK-8 assay

[9] = test system: SK-BR-3; test: Induction of apoptosis in human SK-BR-3 cells assessed as downregulation of XIAP protein expression at 2.5 to 5 uM incubated for 24 hrs by Western blot analysis; format: functional, cell-based; conditions: dose 2.5-5 µM
[10] = Toxicity in nude mouse xenografted with human SK-BR-3 cells assessed as cell necrosis in kidney at 8 umol/kg, iv administered every 3 days for 14 days by H and E staining based analysis; format: organism-based; conditions: in vivo, 336 h, dose 8 µmol/kg, time 14 day
[11] = Toxicity in nude mouse xenografted with human SK-BR-3 cells assessed as cell necrosis in heart at 8 umol/kg, iv administered every 3 days for 14 days by H and E staining based analysis; format: organism-based; conditions: in vivo, 336 h, dose 8 µmol/kg, time 14 day
[12] = Toxicity in nude mouse xenografted with human SK-BR-3 cells assessed as inflammatory cell infiltration in spleen at 8 umol/kg, iv administered every 3 days for 14 days by H and E staining based analysis; format: organism-based; conditions: in vivo, 336 h, dose 8 µmol/kg, time 14 day

IC50 [1]: 1.58 µM | IC50 [8]: 2.5 µM
Compound: CC[C@H](C)[C@H](NC(=O)[C@@H]1CCCN1C(=O)[C@@H](NC(=O)[C@H](C)N)C(C)C)C(=O)N[C@@H](C)C(=O)N[C@@H](CCC(N)=O)C(=O)N[C@@H](CCCCN)C(=O)N[C@@H](CSSCCOC(=O)C1(CC)C(=O)OCc2c1cc1n(c2=O)Cc2cc3ccccc3nc2-1)C(=O)NCC(=O)N[C@@H](Cc1ccccc1)C(=O)N[C@@H](CC(C)C)C(=O)NCC(=O)N[C@@H](CC(N)=O)C(=O)N1CCC[C@H]1C(=O)N[C@@H](CC(N)=O)C(=O)N[C@@H](Cc1c[nH]c2ccccc12)C(=O)NCC(=O)N[C@@H](CCCNC(=N)N)C(=O)N[C@@H](CO)C(=O)N[C@@H](Cc1c[nH]c2ccccc12)C(=O)N[C@@H](Cc1ccc(O)cc1)C(=O)N[C@@H](CC(N)=O)C(=O)N[C@@H](CCC(N)=O)C(=O)N[C@@H](CCCNC(=N)N)C(=O)N[C@@H](Cc1ccccc1)C(=O)N[C@@H](CCCCN)C(N)=O (some centres not stated) (H-AVPIAQKC(X1)GFLGNPNWGRSWYNQRFK-NH2)
Activity [2]: Non-Toxic | Activity [3]: Non-Toxic | Activity [4]: Non-Toxic | Activity [5]: Non-Toxic | Activity [6]: 3.42% | Activity [7]: 61.1% | Activity [9]: Active | Activity [10]: Non-Toxic | Activity [11]: Non-Toxic | Activity [12]: Non-Toxic
